In patent US5698522A, “6-position modified decapeptide LHRH antagonists” (Abbott Laboratories, priority 1995, dated 1997):
*1 amine or outer side, *2 acyl side, *3 side chain or, on linkers, in order; H or OH if unused. Where a SMILES comes first, the peptide text is derived from it. Side-chain parts run from the residue outwards. [ ]: non-standard residue; d: D form. The star is where a group is joined. NMePhe(4-NH(5-NH2-Trz-3-yl)) = CN[C@@H](Cc1ccc(Nc2n[nH]c(N)n2)cc1)C(=O)O; Shikimoyl = O=C(C1=C[C@@H](O)[C@@H](O)[C@H](O)C1)*; dPhe(4-Cl) = N[C@H](Cc1ccc(Cl)cc1)C(=O)O; d2Nal = N[C@H](Cc1ccc2ccccc2c1)C(=O)O; Lys(iPr) = CC(C)NCCCC[C@H](N)C(=O)O; NMeY = CN[C@@H](Cc1ccc(O)cc1)C(=O)O; Ethylenediamine = C(CN[*:2])N[*:1]; d3Pal = N[C@H](Cc1cccnc1)C(=O)O; Nicotinoyl = O=C(c1cccnc1)*; dOrn = NCCC[C@@H](N)C(=O)O; 2Furoyl = O=C(c1ccco1)*; CO = O=C([*:1])[*:2]; Ava = NCCCCC(=O)O; azaGly = NNC(=O)O; βAla = NCCC(=O)O

Target: T1, LHRH receptor (Rattus norvegicus, UniProt P30969)
T1 construct: endogenous in cells
T1 sequence (P30969 1-327): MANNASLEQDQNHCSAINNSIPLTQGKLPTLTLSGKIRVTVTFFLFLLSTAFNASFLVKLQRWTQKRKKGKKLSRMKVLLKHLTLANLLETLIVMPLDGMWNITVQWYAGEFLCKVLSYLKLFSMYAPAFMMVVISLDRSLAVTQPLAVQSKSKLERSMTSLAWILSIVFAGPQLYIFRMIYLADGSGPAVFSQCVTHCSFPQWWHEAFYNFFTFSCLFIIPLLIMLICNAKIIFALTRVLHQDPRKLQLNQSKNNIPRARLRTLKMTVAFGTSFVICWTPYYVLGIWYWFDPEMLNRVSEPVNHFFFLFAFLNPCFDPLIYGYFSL
Test: in vitro LHRH antagonist potency (pA2) against the agonist leuprolide
Assay type: cell-based
Settings: negative logarithm of the antagonist concentration which shifts the response curve produced by the agonist leuprolide to two-fold higher concentration
Outline: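 Functional antagonism against the agonist leuprolide. pA2 is the negative log of antagonist concentration that shifts the leuprolide response curve to twofold higher concentration.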

Row | SMILES | Kb [nM]
1 | CC(=O)N[C@H](Cc1ccc2ccccc2c1)C(=O)N[C@H](Cc1ccc(Cl)cc1)C(=O)N[C@H](Cc1cccnc1)C(=O)N[C@@H](CO)C(=O)N(C)[C@@H](Cc1ccc(O)cc1)C(=O)N[C@H](CCCCNC(=O)NNC(=O)c1cccnc1)C(=O)N[C@@H](CC(C)C)C(=O)N[C@@H](CCCNC(=N)N)C(=O)N1CCC[C@H]1C(=O)N[C@H](C)C(N)=O [Example 37b, NAc-D2Nal^1 -D4ClPhe^2 -D3Pal^3 -Ser^4 -NMeTyr^5 -DLys(N-epsilon-Azagly-Nicotinyl)^6 -Leu^7 -Arg^8 -Pro^9 -DAla^10 NH2] (Ac-[d2Nal][dPhe(4-Cl)][d3Pal]S[NMeY][dK]([azaGly-Nicotinoyl])LRP[dA]-NH2) | 0.00562
2 | CC(=O)N[C@H](Cc1ccc2ccccc2c1)C(=O)N[C@H](Cc1ccc(Cl)cc1)C(=O)N[C@H](Cc1cccnc1)C(=O)N[C@@H](CO)C(=O)N(C)[C@@H](Cc1ccc(O)cc1)C(=O)N[C@H](CCCCNC(=O)[C@@H](CO)NC(=O)c1cccnc1)C(=O)N[C@@H](CC(C)C)C(=O)N[C@@H](CCCNC(=N)N)C(=O)N1CCC[C@H]1C(=O)N[C@H](C)C(N)=O [Example 7, NAc-D2Nal^1 -D4ClPhe^2 -D3Pal^3 -Ser^4 -NMeTyr^5 -DLys(N-epsilon-DSer-Nicotinyl)^6 -Leu^7 -Arg^8 -Pro^9 -DAla^10 NH2] (Ac-[d2Nal][dPhe(4-Cl)][d3Pal]S[NMeY][dK]([dS-Nicotinoyl])LRP[dA]-NH2) | 0.00891
3 | CC(=O)N[C@H](Cc1ccc2ccccc2c1)C(=O)N[C@H](Cc1ccc(Cl)cc1)C(=O)N[C@H](Cc1cccnc1)C(=O)N[C@@H](CO)C(=O)N(C)[C@@H](Cc1ccc(O)cc1)C(=O)N[C@H](CCCCNC(=O)CNC(=O)c1ccco1)C(=O)N[C@@H](CC(C)C)C(=O)N[C@@H](CCCCNC(C)C)C(=O)N1CCC[C@H]1C(=O)N[C@H](C)C(N)=O [Example 6a, NAc-D2Nal^1 -D4ClPhe^2 -D3Pal^3 -Ser^4 -NMeTyr^5 -DLys(N-epsilon-Gly-2-Furoyl)^6 -Leu^7 -Lys(N-epsilon-Isopropyl)^8 -Pro^9 -DAla^10 NH2] (Ac-[d2Nal][dPhe(4-Cl)][d3Pal]S[NMeY][dK]([Gly-2Furoyl])L[Lys(iPr)]P[dA]-NH2) | 0.0158
4 | CC(=O)N[C@H](Cc1ccc2ccccc2c1)C(=O)N[C@H](Cc1ccc(Cl)cc1)C(=O)N[C@H](Cc1cccnc1)C(=O)N[C@@H](CO)C(=O)N(C)[C@@H](Cc1ccc(O)cc1)C(=O)N[C@H](CCCCNC(=O)CNC(=O)C1=C[C@@H](O)[C@@H](O)[C@H](O)C1)C(=O)N[C@@H](CC(C)C)C(=O)N[C@@H](CCCCNC(C)C)C(=O)N1CCC[C@H]1C(=O)N[C@H](C)C(N)=O [Example 6b, NAc-D2Nal^1 -D4ClPhe^2 -D3Pal^3 -Ser^4 -NMeTyr^5 -DLys(N-epsilon-Gly-Shikimyl)^6 -Leu^7 -Lys(N-epsilon-Isopropyl)^8 -Pro^9 -DAla^10 NH2] (Ac-[d2Nal][dPhe(4-Cl)][d3Pal]S[NMeY][dK]([Gly-Shikimoyl])L[Lys(iPr)]P[dA]-NH2) | 0.024
5 | CC(=O)N[C@H](Cc1ccc2ccccc2c1)C(=O)N[C@H](Cc1ccc(Cl)cc1)C(=O)N[C@H](Cc1cccnc1)C(=O)N[C@@H](CO)C(=O)N(C)[C@@H](Cc1ccc(O)cc1)C(=O)N[C@H](CCCCNC(=O)[C@@H](Cc1cccnc1)NC(=O)C1=C[C@@H](O)[C@@H](O)[C@H](O)C1)C(=O)N[C@@H](CC(C)C)C(=O)N[C@@H](CCCNC(=N)N)C(=O)N1CCC[C@H]1C(=O)N[C@H](C)C(N)=O [Example 48i, NAc-D2Nal^1 -D4ClPhe^2 -D3Pal^3 -Ser^4 -NMeTyr^5 -DLys(N-epsilon-D-3Pal-Shikimyl)^6 -Leu^7 -Arg^8 -Pro^9 -DAla^10 NH2] (Ac-[d2Nal][dPhe(4-Cl)][d3Pal]S[NMeY][dK]([d3Pal-Shikimoyl])LRP[dA]-NH2) | 0.0363
6 | CC(=O)N[C@H](Cc1ccc2ccccc2c1)C(=O)N[C@H](Cc1ccc(Cl)cc1)C(=O)N[C@H](Cc1cccnc1)C(=O)N[C@@H](CO)C(=O)N(C)[C@@H](Cc1ccc(O)cc1)C(=O)N[C@H](CCCCNC(=O)CCNC(=O)C1=C[C@@H](O)[C@@H](O)[C@H](O)C1)C(=O)N[C@@H](CC(C)C)C(=O)N[C@@H](CCCNC(=N)N)C(=O)N1CCC[C@H]1C(=O)N[C@H](C)C(N)=O [Example 48g, NAc-D2Nal^1 -D4ClPhe^2 -D3Pal^3 -Ser^4 -NMeTyr^5 -DLys(N-epsilon-Beta-alanyl-Shikimyl)^6 -Leu^7 -Arg^8 -Pro^9 -DAla^10 NH2] (Ac-[d2Nal][dPhe(4-Cl)][d3Pal]S[NMeY][dK]([βAla-Shikimoyl])LRP[dA]-NH2) | 0.0126
7 | CC(=O)N[C@H](Cc1ccc2ccccc2c1)C(=O)N[C@H](Cc1ccc(Cl)cc1)C(=O)N[C@H](Cc1cccnc1)C(=O)N[C@@H](CO)C(=O)N(C)[C@@H](Cc1ccc(O)cc1)C(=O)N[C@H](CCCNC(=O)NNC(=O)c1ccco1)C(=O)N[C@@H](CC(C)C)C(=O)N[C@@H](CCCCNC(C)C)C(=O)N1CCC[C@H]1C(=O)N[C@H](C)C(N)=O [Example 52, NAc-D2-Nal^1 -D4ClPhe^2 -D3Pal^3 -Ser^4 -NMeTyr^5 -DOrn(N-epsilon-Azagly-2-Furoyl)^6 -Leu^7 -Lys(N-epsilon-Isopropyl)^8 -Pro^9 -DAla^10 NH2] (Ac-[d2Nal][dPhe(4-Cl)][d3Pal]S[NMeY][dOrn]([azaGly-2Furoyl])L[Lys(iPr)]P[dA]-NH2) | 0.0155
8 | CC(=O)N[C@H](Cc1ccc2ccccc2c1)C(=O)N[C@H](Cc1ccc(Cl)cc1)C(=O)N[C@H](Cc1cccnc1)C(=O)N[C@@H](CO)C(=O)N(C)[C@@H](Cc1ccc(O)cc1)C(=O)N[C@H](CCCCNC(=O)CNC(=O)c1cccnc1)C(=O)N[C@@H](CC(C)C)C(=O)N[C@@H](CCCCNC(C)C)C(=O)N1CCC[C@H]1C(=O)N[C@H](C)C(N)=O [Example 1, NAc-D2Nal^1 -D4ClPhe^2 -D3Pal^3 -Ser^4 -NMeTyr^5 -DLys(N-epsilon-Gly-Nicotinyl)^6 -Leu^7 -Lys(N-epsilon-Isopropyl)^8 -Pro^9 -DAla^10 NH2] (Ac-[d2Nal][dPhe(4-Cl)][d3Pal]S[NMeY][dK]([Gly-Nicotinoyl])L[Lys(iPr)]P[dA]-NH2) | 0.00355
9 | CC(=O)N[C@H](Cc1ccc2ccccc2c1)C(=O)N[C@H](Cc1ccc(Cl)cc1)C(=O)N[C@H](Cc1cccnc1)C(=O)N[C@@H](CO)C(=O)N(C)[C@@H](Cc1ccc(Nc2n[nH]c(N)n2)cc1)C(=O)N[C@H](CCCCNC(=O)CNC(=O)c1cccnc1)C(=O)N[C@@H](CC(C)C)C(=O)N[C@@H](CCCCNC(C)C)C(=O)N1CCC[C@H]1C(=O)N[C@H](C)C(N)=O [Example 45, NAc-D2Nal^1 -D4ClPhe^2 -D3Pal^3 -Ser^4 -NMePhe(Atz)^5 -DLys(N-epsilon-Gly-Nicotinyl)^6 -Leu^7 -Lys(N-epsilon-Isopropyl)^8 -Pro^9 -DAla^10 NH2] (Ac-[d2Nal][dPhe(4-Cl)][d3Pal]S[NMePhe(4-NH(5-NH2-Trz-3-yl))][dK]([Gly-Nicotinoyl])L[Lys(iPr)]P[dA]-NH2) | 0.00417
10 | CC(=O)N[C@H](Cc1ccc2ccccc2c1)C(=O)N[C@H](Cc1ccc(Cl)cc1)C(=O)N[C@H](Cc1cccnc1)C(=O)N[C@@H](CO)C(=O)N(C)[C@@H](Cc1ccc(O)cc1)C(=O)N[C@H](CCCCNC(=O)CNC(=O)CNC(=O)c1ccco1)C(=O)N[C@@H](CC(C)C)C(=O)N[C@@H](CCCCNC(C)C)C(=O)N1CCC[C@H]1C(=O)N[C@H](C)C(N)=O [Example 57a, NAcD2Nal^1 -D4ClPhe^2 -D3Pal^3 -Ser^4 -NMeTyr^5 -DLys(N-epsilon-Gly-Gly-furoyl)^6 -Leu^7 -Lys(Isp)^8 -Pro^9 -DAla^10 NH2] (Ac-[d2Nal][dPhe(4-Cl)][d3Pal]S[NMeY][dK]([Gly-Gly-2Furoyl])L[Lys(iPr)]P[dA]-NH2) | 0.0145
11 | CC(=O)N[C@H](Cc1ccc2ccccc2c1)C(=O)N[C@H](Cc1ccc(Cl)cc1)C(=O)N[C@H](Cc1cccnc1)C(=O)N[C@@H](CO)C(=O)N(C)[C@@H](Cc1ccc(O)cc1)C(=O)N[C@H](CCCCNC(=O)NCCNC(=O)c1cccnc1)C(=O)N[C@@H](CC(C)C)C(=O)N[C@@H](CCCNC(=N)N)C(=O)N1CCC[C@H]1C(=O)N[C@H](C)C(N)=O [Example 14, NAc-D2Nal^1 -D4ClPhe^2 -D3Pal^3 -Ser^4 -NMeTyr^5 -DLys[N-epsilon-(N'-Carbonyl-Diaminoethane-N"-Nicotinyl)]^6 -Leu^7 -Arg^8 -Pro^9 -DAla^10 NH2] (Ac-[d2Nal][dPhe(4-Cl)][d3Pal]S[NMeY][dK]([CO-Ethylenediamine-Nicotinoyl])LRP[dA]-NH2) | 0.166
12 | CC(=O)N[C@H](Cc1ccc2ccccc2c1)C(=O)N[C@H](Cc1ccc(Cl)cc1)C(=O)N[C@H](Cc1cccnc1)C(=O)N[C@@H](CO)C(=O)N(C)[C@@H](Cc1ccc(O)cc1)C(=O)N[C@H](CCCCNC(=O)CCCCNC(=O)c1cccnc1)C(=O)N[C@@H](CC(C)C)C(=O)N[C@@H](CCCCNC(C)C)C(=O)N1CCC[C@H]1C(=O)N[C@H](C)C(N)=O [Example 43, NAc-D2Nal^1 -D4ClPhe^2 -D3Pal^3 -Ser^4 -NMeTyr^5 -DLys(N-epsilon-5-Aminovaleryl-Nicotinyl)^6 -Leu^7 -Lys(N-epsilon-Isopropyl)^8 -Pro^9 -DAla^10 NH2] (Ac-[d2Nal][dPhe(4-Cl)][d3Pal]S[NMeY][dK]([Ava-Nicotinoyl])L[Lys(iPr)]P[dA]-NH2) | 0.00851
13 | CC(=O)N[C@H](Cc1ccc2ccccc2c1)C(=O)N[C@H](Cc1ccc(Cl)cc1)C(=O)N[C@H](Cc1cccnc1)C(=O)N[C@@H](CO)C(=O)N(C)[C@@H](Cc1ccc(O)cc1)C(=O)N[C@H](CCCCNC(=O)CNC(=O)c1ccco1)C(=O)N[C@@H](CC(C)C)C(=O)N[C@@H](CCCNC(=N)N)C(=O)N1CCC[C@H]1C(=O)N[C@H](C)C(N)=O [Example 18, NAc-D2Nal^1 -D4ClPhe^2 -D3Pal^3 -Ser^4 -NMeTyr^5 -DLys(N-epsilon-Gly-2Furoyl)^6 -Leu^7 -Arg^8 -Pro^9 -DAla^10 NH2] (Ac-[d2Nal][dPhe(4-Cl)][d3Pal]S[NMeY][dK]([Gly-2Furoyl])LRP[dA]-NH2) | 0.00309
